# According to patent US8808737B2 (Endo Pharmaceuticals Inc., priority 2007, dated 2014):
# Tests used:
# [1] = Example 5: urinary excretion of oxymorphone and metabolites after EN3202 in renal impairment; settings: for Mean percentage of the administered dose excreted in the urine / Mean urinary elimination half-life: EN3202 20 mg; for Mean percentage of the administered dose excreted in the urine: 0-120 hours; for Mean (SD) Ratio of Metabolite/Parent Excreted in Urine: parent = oxymorphone; for Mean (SD) Percent of Dose Recovered in Urine (0-120 hours): single oral 20-mg dose of EN3202
# Method: (§1) Attempts were made to match controls with the renal impaired patients with respect to age, gender, and weight. […] Naltrexone (50 mg) was administered on the evening prior to administration of the EN3202 dose.
# Each subject was to be instructed to void at the end of each interval (so that each collection interval began with an empty bladder). The void prior to administration of the test medication (time 0) served as the pre-dose blank and was not be included in the collection container.
# (§2) Plasma and urine pharmacokinetic variables were calculated from the concentration data using standard, non-compartmental methods as outlined in the following table.
# [2] = Pain levels (VAS, categorical scale) vs plasma oxymorphone and 6-hydroxyoxymorphone after a single dose; type: in vivo, human; settings: single dose of oxymorphone, FIGS. 1-4
# Method: For these tests, pain was measured using a Visual Analog Scale (VAS) or a Categorical Scale. The VAS scales consisted of a horizontal line, 100 mm in length. The left-hand end of the scale (0 mm) was marked with the descriptor “No Pain” and the right-hand end of the scale (100 mm) was marked with the descriptor “Extreme Pain”. Patients indicated their level of pain by making a vertical mark on the line. The VAS score was equal to the distance (in mm) from the left-hand end of the scale to the patient's mark. For the categorical scale, patients completed the following statement, “My pain at this time is” using the scale None=0, Mild=1, Moderate=2, or Severe=3.
# [3] = Example 5: plasma pharmacokinetics of oxymorphone and metabolites after EN3202 in renal impairment vs healthy controls; settings: for Mean bioavailability ratio (90% confidence interval) for AUC relative to controls / Mean bioavailability ratio (90% confidence interval) for Cmax relative to controls: ln-transformed; for AUC in plasma (mean, untransformed) / AUCT in plasma (mean, untransformed) / Cmax in plasma (mean, untransformed) / Ke, terminal elimination rate constant in plasma (mean) / Tmax in plasma (median) / t½, terminal elimination half-life in plasma (mean): single 20 mg dose of EN3202
# Method: as §1
# In order to protect the subjects from potential opioid-related adverse events, a single 50-mg dose of the opioid antagonist ReVia® (naltrexone HCl) was administered at 20:00 the evening prior to administration of test medication. […] Subjects continued fasting until four (4) hours after dose administration. The subjects remained in an upright posture (sitting or standing) for 1 hour after dose administration. All doses were administered with 240 mL of water (room temperature), and the subjects were instructed to drink all the water.
# as §2
# All pharmacokinetic results are summarized using appropriate descriptive statistics. Continuous variables were compared between renally impaired and control groups using appropriate parametric statistics. 90% confidence intervals were calculated for the differences or ratios between the renally impaired and control groups. In addition, the association between oral clearance (and other pharmacokinetic variables) and the severity of renal insufficiency (based on creatinine clearance) was explored.
# [4] = Example 5: correlation of oxymorphone and metabolite plasma AUC / oral clearance with creatinine clearance; type: in vivo, human; settings: linear regression; for AUC/wt vs. CLCR: R-square / AUC/wt vs. CLCR: Slope: AUC normalized for body weight vs creatinine clearance; for AUC vs. CLCR: R-square / AUC vs. CLCR: Slope: plasma AUC vs creatinine clearance
# From the text: Creatinine clearance (ClCR) was estimated at screening using the following Cockroft and Gault^8 equation: […]
# All pharmacokinetic results are summarized using appropriate descriptive statistics.
# The potential association between plasma AUC and creatinine clearance was explored using linear regression techniques and the results are summarized in Table 36 and FIG. 16.
# [5] = subjects with mild renal impairment
# [6] = subjects with moderate renal impairment
# [7] = subjects with severe renal impairment
# [8] = EN3202 20 mg, mild renal impairment
# [9] = EN3202 20 mg, moderate renal impairment
# [10] = EN3202 20 mg, severe renal impairment
# [11] = Healthy Controls, listed as oxymorphone-3-glucuronide
# [12] = Severe Impairment, listed as oxymorphone-3-glucuronide
smiles,measurement,setting,value
"CN1CC[C@]23c4c5ccc(O)c4O[C@H]2C(O)CC[C@@]3(O)[C@H]1C5 (some centres unmarked) [6-OH-oxymorphone, 6-hydroxy oxymorphone]",Mean percentage of the administered dose excreted in the urine,[1]; severe renal impairment,0.16%
same,Mean urinary elimination half-life,[1]; healthy controls,22.8 h
same,Mean urinary elimination half-life,[1]; mild renal impairment,19.6 h
same,Mean urinary elimination half-life,[1]; moderate renal impairment,22.4 h
same,Mean urinary elimination half-life,[1]; severe renal impairment,34.4 h
same,Mean (SD) Ratio of Metabolite/Parent Excreted in Urine,[1]; healthy controls,0.85 (0.27)
same,Mean (SD) Percent of Dose Recovered in Urine (0-120 hours),[1]; healthy controls,0.62 (0.28) %
same,Mean (SD) Ratio of Metabolite/Parent Excreted in Urine,[1]; [5],0.73 (0.45)
same,Mean (SD) Percent of Dose Recovered in Urine (0-120 hours),[1]; [5],0.49 (0.15) %
same,Mean (SD) Ratio of Metabolite/Parent Excreted in Urine,[1]; [6],0.41 (0.22)
same,Mean (SD) Percent of Dose Recovered in Urine (0-120 hours),[1]; [6],0.26 (0.14) %
same,Mean (SD) Ratio of Metabolite/Parent Excreted in Urine,[1]; [7],0.47 (0.42)
same,Mean (SD) Percent of Dose Recovered in Urine (0-120 hours),[1]; [7],0.16 (0.11) %
same,Relation between pain relief and blood plasma level,[2],there is a correlation
same,Mean bioavailability ratio (90% confidence interval) for AUC relative to controls,[3]; [8],0.9953 (0.6153-1.6100)
same,Mean bioavailability ratio (90% confidence interval) for Cmax relative to controls,[3]; [8],1.4818
same,Mean bioavailability ratio (90% confidence interval) for AUC relative to controls,[3]; [9],0.9445 (0.5839-1.5279)
same,Mean bioavailability ratio (90% confidence interval) for AUC relative to controls,[3]; [10],1.3862 (0.8569-2.2423)
same,"AUC in plasma (mean, untransformed)",[3]; Healthy Controls,19.76 ng·h/mL
same,"AUCT in plasma (mean, untransformed)",[3]; Healthy Controls,14.95 ng·h/mL
same,"Cmax in plasma (mean, untransformed)",[3]; Healthy Controls,0.70 ng/mL
same,"Ke, terminal elimination rate constant in plasma (mean)",[3]; Healthy Controls,0.0449
same,Tmax in plasma (median),[3]; Healthy Controls,1.5 h
same,"t½, terminal elimination half-life in plasma (mean)",[3]; Healthy Controls,22.20 h
same,"AUC in plasma (mean, untransformed)",[3]; Mild Impairment,18.57 ng·h/mL
same,"AUCT in plasma (mean, untransformed)",[3]; Mild Impairment,14.26 ng·h/mL
same,"Cmax in plasma (mean, untransformed)",[3]; Mild Impairment,0.99 ng/mL
same,"Ke, terminal elimination rate constant in plasma (mean)",[3]; Mild Impairment,0.0451
same,Tmax in plasma (median),[3]; Mild Impairment,1.5 h
same,"t½, terminal elimination half-life in plasma (mean)",[3]; Mild Impairment,18.04 h
same,"AUC in plasma (mean, untransformed)",[3]; Moderate Impairment,17.64 ng·h/mL
same,"AUCT in plasma (mean, untransformed)",[3]; Moderate Impairment,11.70 ng·h/mL
same,"Cmax in plasma (mean, untransformed)",[3]; Moderate Impairment,0.76 ng/mL
same,"Ke, terminal elimination rate constant in plasma (mean)",[3]; Moderate Impairment,0.0312
same,Tmax in plasma (median),[3]; Moderate Impairment,2.5 h
same,"t½, terminal elimination half-life in plasma (mean)",[3]; Moderate Impairment,27.82 h
same,"AUC in plasma (mean, untransformed)",[3]; Severe Impairment,32.04 ng·h/mL
same,"AUCT in plasma (mean, untransformed)",[3]; Severe Impairment,26.48 ng·h/mL
same,"Cmax in plasma (mean, untransformed)",[3]; Severe Impairment,0.99 ng/mL
same,"Ke, terminal elimination rate constant in plasma (mean)",[3]; Severe Impairment,0.0349
same,Tmax in plasma (median),[3]; Severe Impairment,2.0 h
same,"t½, terminal elimination half-life in plasma (mean)",[3]; Severe Impairment,26.53 h
same,AUC/wt vs. CLCR: R-square,[4],0.1222
same,AUC/wt vs. CLCR: Slope,[4],−0.0011
same,AUC vs. CLCR: R-square,[4],0.0977
same,AUC vs. CLCR: Slope,[4],−0.1387
"CN1CC[C@]23c4c5ccc(O[C@@H]6O[C@H](C(=O)O)[C@@H](O)[C@H](O)[C@H]6O)c4O[C@H]2C(=O)CC[C@@]3(O)[C@H]1C5 [Oxymorphone-3-glucuronide, oxymorphone-3-glucuronide]",Mean percentage of the administered dose excreted in the urine,[1]; healthy controls,37.16%
same,Mean percentage of the administered dose excreted in the urine,[1]; severe renal impairment,38.35%
same,Mean urinary elimination half-life,[1]; healthy controls,12.7 h
same,Mean urinary elimination half-life,[1]; mild renal impairment,9.8 h
same,Mean urinary elimination half-life,[1]; moderate renal impairment,12.8 h
same,Mean urinary elimination half-life,[1]; severe renal impairment,36.6 h
same,Mean (SD) Ratio of Metabolite/Parent Excreted in Urine,[1]; healthy controls,51.78 (16.89)
same,Mean (SD) Percent of Dose Recovered in Urine (0-120 hours),[1]; healthy controls,37.16 (14.94) %
same,Mean (SD) Ratio of Metabolite/Parent Excreted in Urine,[1]; [5],72.17 (48.36)
same,Mean (SD) Percent of Dose Recovered in Urine (0-120 hours),[1]; [5],44.36 (8.72) %
same,Mean (SD) Ratio of Metabolite/Parent Excreted in Urine,[1]; [6],70.62 (37.69)
same,Mean (SD) Percent of Dose Recovered in Urine (0-120 hours),[1]; [6],38.87 (8.63) %
same,Mean (SD) Ratio of Metabolite/Parent Excreted in Urine,[1]; [7],112.44 (40.45)
same,Mean (SD) Percent of Dose Recovered in Urine (0-120 hours),[1]; [7],38.35 (13.10) %
same,Mean plasma metabolite:oxymorphone ratio of AUC values (molar units),"[3]; EN3202 20 mg, healthy controls",94.1
same,Mean plasma metabolite:oxymorphone ratio of AUC values (molar units),[3]; [8],132.3
same,Mean bioavailability ratio (90% confidence interval) for AUC relative to controls,[3]; [8],1.7960 (1.3071-2.4677)
same,Mean bioavailability ratio (90% confidence interval) for Cmax relative to controls,[3]; [8],1.5769 (1.2146-2.0473)
same,Mean plasma metabolite:oxymorphone ratio of AUC values (molar units),[3]; [9],191.4
same,Mean bioavailability ratio (90% confidence interval) for AUC relative to controls,[3]; [9],3.1196 (2.2704-4.2863)
same,Mean bioavailability ratio (90% confidence interval) for Cmax relative to controls,[3]; [9],1.9830 (1.5274-2.5745)
same,Mean plasma metabolite:oxymorphone ratio of AUC values (molar units),[3]; [10],505.6
same,Mean bioavailability ratio (90% confidence interval) for AUC relative to controls,[3]; [10],9.0701 (6.6013-12.462)
same,Mean bioavailability ratio (90% confidence interval) for Cmax relative to controls,[3]; [10],3.1422 (2.4202-4.0795)
same,Mean increase in plasma AUC values relative to healthy controls,"[3]; EN3202 20 mg, subjects with creatinine clearance values, 30 mL/min",~9.7 fold
same,"AUC in plasma (mean, untransformed)",[3]; Healthy Controls,2439.7 ng·h/mL
same,"AUCT in plasma (mean, untransformed)",[3]; Healthy Controls,2309.5 ng·h/mL
same,"Cmax in plasma (mean, untransformed)",[3]; Healthy Controls,170.1 ng/mL
same,Tmax in plasma (median),[3]; Healthy Controls,3.0 h
same,"t½, terminal elimination half-life in plasma (mean)",[3]; Healthy Controls,9.53 h
same,"AUC in plasma (mean, untransformed)",[3]; [11],2440 ng·h/mL
same,"Cmax in plasma (mean, untransformed)",[3]; [11],170 ng/mL
same,"t½, terminal elimination half-life in plasma (mean)",[3]; [11],9.5 h
same,"AUC in plasma (mean, untransformed)",[3]; Mild Impairment,4468.6 ng·h/mL
same,"AUCT in plasma (mean, untransformed)",[3]; Mild Impairment,4330.7 ng·h/mL
same,"Cmax in plasma (mean, untransformed)",[3]; Mild Impairment,280.2 ng/mL
same,Tmax in plasma (median),[3]; Mild Impairment,3.5 h
same,"t½, terminal elimination half-life in plasma (mean)",[3]; Mild Impairment,10.23 h
same,"AUC in plasma (mean, untransformed)",[3]; Moderate Impairment,8129.7 ng·h/mL
same,"AUCT in plasma (mean, untransformed)",[3]; Moderate Impairment,7959.9 ng·h/mL
same,"Cmax in plasma (mean, untransformed)",[3]; Moderate Impairment,359.7 ng/mL
same,Tmax in plasma (median),[3]; Moderate Impairment,4.5 h
same,"t½, terminal elimination half-life in plasma (mean)",[3]; Moderate Impairment,11.10 h
same,"AUC in plasma (mean, untransformed)",[3]; Severe Impairment,23604.2 ng·h/mL
same,"AUCT in plasma (mean, untransformed)",[3]; Severe Impairment,22313.6 ng·h/mL
same,"Cmax in plasma (mean, untransformed)",[3]; Severe Impairment,547.7 ng/mL
same,Tmax in plasma (median),[3]; Severe Impairment,11.0 h
same,"t½, terminal elimination half-life in plasma (mean)",[3]; Severe Impairment,22.09 h
same,"AUC in plasma (mean, untransformed)",[3]; [12],23604 ng·h/mL
same,"Cmax in plasma (mean, untransformed)",[3]; [12],548 ng/mL
same,"t½, terminal elimination half-life in plasma (mean)",[3]; [12],22.1 h
same,AUC/wt vs. CLCR: R-square,[4],0.4911
same,AUC/wt vs. CLCR: Slope,[4],−1.4140
same,AUC vs. CLCR: R-square,[4],0.4976
same,AUC vs. CLCR: Slope,[4],−221.43
